From patent US7365231B2, “Compound with antitumor activity and preparation method therefor” (National Taiwan University of Science & Technology, priority 2005, dated 2008)

Tests used:
Assay in all cases: NCI panel growth inhibition, sulforhodamine B
SN12C = assay type: cell-based; conditions: Homo sapiens, Renal cancer, drug for last 48 h of 72 h
Description: (§1) Comparison of anticancer activities of the 1,3-substituted adamantane derivatives, 1,3-bis(4-aminophenyl)adamantane (1,3-DPANH2), 1,3-bis(4-(4-aminophenoxy)phenyl)adamantane (1,3-DPAONH2), 1,3-bis(4-(4-amino-3-hydroxy)phenyl)adamantane (1,3-DPA/OH/NH2) and 1,3-bis(4-(4-amino-2-trifluoromethylphenoxy)phenyl)adamantane (1,3-DPA/CF3/NH2) as shown in FIG. 1 were synthesized in the present invention. Those compounds were submitted to the National Cancer Institute for anticancer assay in culture against a standard panel of cell lines. […] To further confirm that the different substituents (CF3 and OH) on the phenyl ring of 1,3-DPAONH2 affect the growth inhibition of cancer cells. […] The transformations of 1,3-DPAONH2 to 1,3-DPA/OH/NH2 led to a remarked enhancement of anticancer activity toward all the tested cancer lines. The role of the OH group at the ortho position of the NH2 on growth inhibition is remarkable. In addition, one compound (1,3-DPA/OH/NH2) was confirmed to have an IC50 of <1 μM against one of the cells (BT-549 breast carcinoma). Comparison of anticancer activities of 1,3-substituted diaminophenyladamantane derivatives, the following order of potency against the tested cancer lines was observed: 1,3-DPA/OH/NH2>1,3-DPAONH2>1,3-DPANH2>1,3-DPA/CF3/NH2.

MDA-N = assay type: cell-based; conditions: Homo sapiens, Breast cancer, drug for last 48 h of 72 h
Description: as §1

LOX IMVI = assay type: cell-based; conditions: Homo sapiens, Melanoma, drug for last 48 h of 72 h
Description: as §1

IGROV1 = assay type: cell-based; conditions: Homo sapiens, IGROV-1; IGROV1, Ovarian cancer; drug for last 48 h of 72 h
Description: as §1

MOLT-4 = assay type: cell-based; conditions: Homo sapiens; MOLT-4, Leukemia; drug for last 48 h of 72 h
Description: as §1

A498 = assay type: cell-based; conditions: Homo sapiens; A498, Renal cancer; drug for last 48 h of 72 h
Description: as §1

CAKI-1 = assay type: cell-based; conditions: Homo sapiens; CAKI-1, Renal cancer; drug for last 48 h of 72 h
Description: as §1

PC-3 = assay type: cell-based; conditions: Homo sapiens; PC-3, Prostate cancer; drug for last 48 h of 72 h
Description: as §1

OVCAR-8 = assay type: cell-based; conditions: Homo sapiens; OVCAR-8, Ovarian cancer; drug for last 48 h of 72 h
Description: as §1

SK-MEL-28 = assay type: cell-based; conditions: Homo sapiens; SK-MEL-28, Melanoma; drug for last 48 h of 72 h
Description: as §1

NCI-H23 = assay type: cell-based; conditions: Homo sapiens; NCI-H23, NSCLC; drug for last 48 h of 72 h
Description: as §1

K-562 = assay type: cell-based; conditions: Homo sapiens, K562; K-562, Leukemia; drug for last 48 h of 72 h
Description: as §1

SW-620 = assay type: cell-based; conditions: Homo sapiens; SW-620, Colon cancer; drug for last 48 h of 72 h
Description: as §1

HCT-15 = assay type: cell-based; conditions: Homo sapiens; HCT-15, Colon cancer; drug for last 48 h of 72 h
Description: as §1

OVCAR-5 = assay type: cell-based; conditions: Homo sapiens; OVCAR-5, Ovarian cancer; drug for last 48 h of 72 h
Description: as §1

MDA-MB-435 = assay type: cell-based; conditions: Homo sapiens; MDA-MB-435, Breast cancer; drug for last 48 h of 72 h
Description: as §1

NCI-H522 = assay type: cell-based; conditions: Homo sapiens; NCI-H522, NSCLC; drug for last 48 h of 72 h
Description: as §1

HCT-116 = assay type: cell-based; conditions: Homo sapiens; HCT-116, Colon cancer; drug for last 48 h of 72 h
Description: as §1

HOP-62 = assay type: cell-based; conditions: Homo sapiens; HOP-62, NSCLC; drug for last 48 h of 72 h
Description: as §1

M14 = assay type: cell-based; conditions: Homo sapiens; M14, Melanoma; drug for last 48 h of 72 h
Description: as §1

SF-295 = assay type: cell-based, human; conditions: drug for last 48 h of 72 h
Description: as §1

BT-549 = assay type: cell-based, human; conditions: drug for last 48 h of 72 h
Description: as §1

NCI/ADR-RES = assay type: cell-based, human; conditions: Breast cancer, drug for last 48 h of 72 h
Description: as §1

KM12 = assay type: cell-based; conditions: Homo sapiens, KM12, KM12, Colon cancer; drug for last 48 h of 72 h
Description: as §1

A549/ATCC = assay type: cell-based; conditions: Homo sapiens, NSCLC, drug for last 48 h of 72 h
Description: as §1

COLO 205 = assay type: cell-based; conditions: Homo sapiens; COLO 205, Colon cancer; drug for last 48 h of 72 h
Description: as §1

SK-MEL-5 = assay type: cell-based; conditions: Homo sapiens; SK-MEL-5, Melanoma; drug for last 48 h of 72 h
Description: as §1

786-0 = assay type: cell-based; conditions: Homo sapiens; 786-0, Renal cancer; drug for last 48 h of 72 h
Description: as §1

DU-145 = assay type: cell-based; conditions: Homo sapiens; DU-145, Prostate cancer; drug for last 48 h of 72 h
Description: as §1

[1] = Homo sapiens, SF-295, SF-295, CNS cancer
[2] = Homo sapiens, BT-549, BT-549, Breast cancer

Row | SMILES | IC50 (SN12C) [µM] | IC50 (MDA-N) [µM] | IC50 (LOX IMVI) [µM] | IC50 (IGROV1) [µM] | IC50 (MOLT-4) [µM] | IC50 (A498) [µM] | IC50 (CAKI-1) [µM] | IC50 (PC-3) [µM] | IC50 (OVCAR-8) [µM] | IC50 (SK-MEL-28) [µM] | IC50 (NCI-H23) [µM] | IC50 (K-562) [µM] | IC50 (SW-620) [µM] | IC50 (HCT-15) [µM] | IC50 (HCT-116) [µM] | IC50 (HOP-62) [µM] | IC50 (M14) [µM] | IC50 (SF-295; [1]) [µM] | IC50 (BT-549; [2]) [µM] | IC50 (NCI/ADR-RES; Homo sapiens) [µM] | further results
1 | Nc1ccc(C2(c3ccc(N)cc3)C3CC4CC(C3)CC2C4)cc1 [2,2-DPANH2, 2,2-bis(4-aminophenyl)adamantane] | 18.6 | 18.6 | 16.2 | 9.6 | 4.96 | 21 | 15 | 14.9 | 7.73 | 14.9 | 19.9 | 10.3 | 11.4 | 21.9 | 20.9 | 13.6 | 14.9 | < 0.1 | 11.2 | < 0.1 | IC50 (OVCAR-5): 15.8 µM; IC50 (MDA-MB-435): 14.7 µM; IC50 (NCI-H522): 15.6 µM; IC50 (SF-295; SF-295, CNS cancer): 0.059 µM; IC50 (NCI/ADR-RES): 0.079 µM
2 | Nc1ccc(C23CC4CC(C2)CC(c2ccc(N)cc2)(C4)C3)cc1 [1,3-DPANH2, 1,3-bis(4-aminophenyl)adamantane] | 25.1 | 37.7 | > 100 | > 100 | 11.3 | 15.7 | > 100 | – | 85.1 | 15 | 59.6 | 14.6 | 3.14 | 14.5 | 44.3 | 60 | 37.1 | 16.4 | 42.8 | 56.8 | IC50 (KM12): > 100 µM; IC50 (A549/ATCC): > 100 µM; IC50 (COLO 205): 2.3 µM; IC50 (OVCAR-5): 27.6 µM; IC50 (SK-MEL-5): 13.1 µM; IC50 (786-0): 38.5 µM; IC50 (DU-145): 51.2 µM
3 | Nc1ccc(Oc2ccc(C34CC5CC(C3)CC(c3ccc(Oc6ccc(N)c(O)c6)cc3)(C5)C4)cc2)cc1O [1,3-DPA/OH/NH2, 1,3-bis-(4-(4-amino-3-hydroxyphenoxy)phenyl)adamantane] | 1.74 | 1.58 | 1.64 | 1.38 | 2.42 | 4.54 | 1.82 | 1.94 | 2.03 | 2.74 | 1.86 | 3.46 | 2.89 | 1.76 | 1.39 | 5.53 | 1.59 | 2.29 | < 1 | 2.32 | IC50 (KM12): 1.72 µM; IC50 (A549/ATCC): 1.52 µM; IC50 (COLO 205): 1.84 µM; IC50 (MDA-MB-435): 1.92 µM; IC50 (SK-MEL-5): 1.88 µM; IC50 (NCI-H522): 1.4 µM; IC50 (786-0): 2.83 µM; IC50 (DU-145): 1.72 µM; IC50 (BT-549; BT-549, Breast cancer): 0.565 µM
4 | Nc1ccc(Oc2ccc(C34CC5CC(C3)CC(c3ccc(Oc6ccc(N)cc6)cc3)(C5)C4)cc2)cc1 [1,3-DPAONH2, 1,3-bis(4-(4-aminophenoxy)phenyl)adamantane] | 5.76 | 4.33 | 2.44 | 2.64 | 3.81 | 18 | 12.1 | 11.5 | 4.82 | 18.8 | 6.92 | 7.08 | 6.52 | 4.99 | 5.65 | 10.7 | 9.62 | 6.91 | 4.02 | 8.59 | IC50 (KM12): 4.07 µM; IC50 (A549/ATCC): 10.3 µM; IC50 (COLO 205): 13.3 µM; IC50 (OVCAR-5): 19.1 µM; IC50 (MDA-MB-435): 5.22 µM; IC50 (SK-MEL-5): 13.8 µM; IC50 (NCI-H522): 13.3 µM; IC50 (786-0): 8.09 µM; IC50 (DU-145): 6.41 µM
5 | Nc1ccc(Oc2ccc(C34CC5CC(C3)CC(c3ccc(Oc6ccc(N)cc6C(F)(F)F)cc3)(C5)C4)cc2)c(C(F)(F)F)c1 [1,3-DPA/CF3/NH2, 1,3-bis-(4-(4-amino-2-trifluoromethylphenoxy)phenyl)adamantane] | 31.1 | 36.7 | 17.9 | 19.5 | 35.7 | 18.3 | 28.1 | 14.8 | 16 | 43.2 | 17.7 | 43.9 | 36.3 | 31.8 | 24.9 | 18.2 | 16.9 | 25.3 | 21.9 | 21.7 | IC50 (KM12): 21 µM; IC50 (A549/ATCC): 19 µM; IC50 (COLO 205): 19.1 µM; IC50 (OVCAR-5): 27 µM; IC50 (MDA-MB-435): 24.2 µM; IC50 (SK-MEL-5): 22 µM; IC50 (NCI-H522): 14.4 µM; IC50 (786-0): 31.5 µM; IC50 (DU-145): 35.2 µM
6 | Nc1ccc(Oc2ccc(C3(c4ccc(Oc5ccc(N)c(O)c5)cc4)C4CC5CC(C4)CC3C5)cc2)cc1O [DPA, 2,2-bis(4-(4-amino-3-hydroxyphenoxy)phenyl)adamantane] | 1.83 | 2.14 | 1.69 | 1.75 | 1.45 | 4.67 | 2.32 | 1.6 | 1.68 | 1.68 | 1.84 | 1.98 | 1.63 | 1.67 | 1.58 | 2.11 | 1.69 | 2.57 | 2.05 | 2.33 | IC50 (KM12): 2.02 µM; IC50 (A549/ATCC): 1.94 µM; IC50 (COLO 205): 0.484 µM; IC50 (OVCAR-5): 2.08 µM; IC50 (MDA-MB-435): 2.3 µM; IC50 (SK-MEL-5): 1.56 µM; IC50 (NCI-H522): 1.6 µM; IC50 (786-0): 1.88 µM; IC50 (DU-145): 2.06 µM
